A short description of data set [1]: Fibril formation of crude library peptides (Thioflavin T). Conditions: Physical stability of peptides. Further details: key: average ThT fluorescence emission at 480 nm (ex 450 nm), raw units. The class given is physicochemical. In short, it runs like this: (§1)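 Turbidity is the absorbance at 600 nm, taken before heating. Fibril signal is the mean ThT emission at 480 nm (450 nm excitation), read every 10 min over 72 h at 40° C with 700 rpm shaking between reads. Peptides at 267 μM, pH 4.0 acetate or pH 7.0 phosphate buffer (50 mM), 4 μM ThT final.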

The next data set has as its target SCTR (Homo sapiens, UniProt P47872). As to the kind of experiment: hSCTR potency, cAMP accumulation in CHO-K1 cells stably overexpressing hSCTR. Conditions: cAMP accumulation, CHO-K1 cells overexpressing hSCTR; read-out: pEC50 hSCTR (converted). The data set is classed as cell-based. Further details: alternatively Euroscreen ES-712-AF; FAST-0161L; host or cells: CHO-K1. In short, it runs like this:
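EC50 derived from variable-slope nonlinear regression on 11-point, 3-fold series run in duplicate (crude peptides: 5 points, 10-fold, n=1). Compound stimulation lasted 30 min at room temperature in casein/IBMX-containing DPBS (0.05%, 0.5 mM), 2000 cells/well; cAMP detected by time-resolved FRET after one hour.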
(In general: Changes in cAMP serve as a functional read-out for many G protein-coupled receptors.)

The next data set addresses GLP1R (Homo sapiens, UniProt P43220). As to the kind of experiment: hGLP1R potency, cAMP accumulation in CHO-K1 cells stably overexpressing hGLP1R. The data set is classed as cell-based. Further details: host or cells: CHO-K1. Conditions: for Selectivity: SCTR EC50/GLP1R EC50 ratio; for EC50: cAMP accumulation, CHO-K1 cells overexpressing hGLP1R, read-out: pEC50 hGLPR1 (converted). In short, it runs like this: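 EC50 derives from variable-slope nonlinear regression of cAMP HTRF signal, with purified peptides tested as 11 three-fold dilutions in duplicate. Assay: hGLP1R-overexpressing CHO-K1 cells, 0.5 mM IBMX, 0.05% casein in DPBS, 30 min room-temperature stimulation, GLP-1(7-36) as reference agonist.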

The nature of data set [2]: Turbidity of crude library peptides (absorbance at 600 nm). The class given is physicochemical. Conditions: Physical stability of peptides. Put shortly: as §1

Numbered stars: 1 amine (or outer) side, 2 acyl side, 3 side chain; on linkers, the order of the positions; unused ones are H or OH. Square brackets hold non-standard residues; d marks the D form. Side chains are listed from the residue outwards. Peptide text beside a SMILES is read from it. * marks the point of attachment. C20 diacid = O=C(O)CCCCCCCCCCCCCCCCCCC(=O)*; γGlu = O=C(O)[C@H](CCC(=O)[*:2])N[*:1]; AEEA = NCCOCCOCC(=O)O; Aib = CC(C)(N)C(=O)O

Sequence of GLP1R (P43220 24-463): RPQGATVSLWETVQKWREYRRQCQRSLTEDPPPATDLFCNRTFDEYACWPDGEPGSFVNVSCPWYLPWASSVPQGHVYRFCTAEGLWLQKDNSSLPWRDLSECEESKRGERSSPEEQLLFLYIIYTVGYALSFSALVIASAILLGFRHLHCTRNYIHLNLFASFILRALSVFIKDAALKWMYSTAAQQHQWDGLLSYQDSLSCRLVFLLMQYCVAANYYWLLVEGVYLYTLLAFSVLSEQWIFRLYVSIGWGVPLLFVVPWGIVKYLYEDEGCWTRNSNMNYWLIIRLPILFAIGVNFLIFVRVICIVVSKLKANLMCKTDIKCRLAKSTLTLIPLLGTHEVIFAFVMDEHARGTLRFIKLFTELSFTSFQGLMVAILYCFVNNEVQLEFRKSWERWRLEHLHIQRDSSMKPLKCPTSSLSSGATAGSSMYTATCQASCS
Sequence of SCTR (P47872 23-440): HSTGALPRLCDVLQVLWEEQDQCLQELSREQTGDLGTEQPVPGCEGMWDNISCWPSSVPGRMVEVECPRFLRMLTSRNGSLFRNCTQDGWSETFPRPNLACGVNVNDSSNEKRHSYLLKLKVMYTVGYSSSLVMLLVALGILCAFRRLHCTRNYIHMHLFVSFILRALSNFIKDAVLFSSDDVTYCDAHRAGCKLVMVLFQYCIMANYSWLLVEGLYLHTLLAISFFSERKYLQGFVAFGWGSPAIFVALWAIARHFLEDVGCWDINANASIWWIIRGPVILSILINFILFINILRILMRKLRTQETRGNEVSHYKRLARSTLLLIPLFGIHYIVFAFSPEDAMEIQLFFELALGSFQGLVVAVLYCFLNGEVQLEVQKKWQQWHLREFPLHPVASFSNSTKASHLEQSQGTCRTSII

`CC(C)C[C@H](NC(=O)[C@H](Cc1ccccc1)NC(=O)[C@H](CCCNC(=N)N)NC(=O)[C@H](CCC(N)=O)NC(=O)[C@@H](NC(=O)[C@H](C)NC(=O)[C@H](C)NC(=O)C(C)(C)NC(=O)[C@H](CCC(=O)O)NC(=O)[C@H](CCCCNC(=O)COCCOCCNC(=O)COCCOCCNC(=O)CC[C@H](NC(=O)CCCCCCCCCCCCCCCCCCC(=O)O)C(=O)O)NC(=O)[C@H](CC(C)C)NC(=O)[C@H](Cc1ccc(O)cc1)NC(=O)[C@H](CO)NC(=O)[C@@H](NC(=O)[C@H](CC(=O)O)NC(=O)[C@H](CO)NC(=O)[C@@H](NC(=O)[C@H](Cc1ccccc1)NC(=O)[C@@H](NC(=O)CNC(=O)[C@H](CCC(=O)O)NC(=O)C(C)(C)NC(=O)[C@@H](N)Cc1c[nH]cn1)[C@@H](C)O)[C@@H](C)O)C(C)C)[C@@H](C)O)C(=O)N[C@@H](CCC(=O)O)C(=O)N[C@@H](Cc1c[nH]cn1)C(=O)N[C@@H](CC(C)C)C(=O)N[C@H](C(N)=O)C(C)C` [compound 48] (H-H[Aib]EGTFTSDVSYLK([AEEA-AEEA-γGlu-C20 diacid])E[Aib]AATQRFLEHLV-NH2): the Fibril formation in data set [1] is reported as 16290. For the same compound, the EC50 at SCTR was 126 nM. On GLP1R, the Selectivity came to 5236 and the EC50 is 0.0251 nM. Further, in data set [2], the “Turbidity (pH 7)” value is 0.08.

In data set [1], `CC(C)C[C@H](NC(=O)[C@H](Cc1ccccc1)NC(=O)[C@H](CCCNC(=N)N)NC(=O)[C@H](CCC(N)=O)NC(=O)[C@@H](NC(=O)[C@H](C)NC(=O)[C@H](C)NC(=O)C(C)(C)NC(=O)[C@H](CCC(=O)O)NC(=O)[C@H](CCCCNC(=O)COCCOCCNC(=O)COCCOCCNC(=O)CC[C@H](NC(=O)CCCCCCCCCCCCCCCCCCC(=O)O)C(=O)O)NC(=O)[C@H](CC(C)C)NC(=O)[C@@H](NC(=O)[C@H](CO)NC(=O)[C@@H](NC(=O)[C@H](CC(=O)O)NC(=O)[C@H](CO)NC(=O)[C@@H](NC(=O)[C@H](Cc1ccccc1)NC(=O)[C@@H](NC(=O)CNC(=O)[C@H](CCC(=O)O)NC(=O)C(C)(C)NC(=O)[C@@H](N)Cc1c[nH]cn1)[C@@H](C)O)[C@@H](C)O)C(C)C)C(C)C)[C@@H](C)O)C(=O)N[C@@H](CCC(=O)O)C(=O)N[C@@H](Cc1c[nH]cn1)C(=O)N[C@@H](CC(C)C)C(=O)N[C@H](C(N)=O)C(C)C` [compound 49] (H-H[Aib]EGTFTSDVSVLK([AEEA-AEEA-γGlu-C20 diacid])E[Aib]AATQRFLEHLV-NH2) gave a Fibril formation of 11371. The EC50 at SCTR was 126 nM. Also, on GLP1R, the Selectivity is 5429 and the EC50 was 0.02 nM. In addition, the “Turbidity (pH 7)” value in data set [2] is 0.08.

With `CC(C)C[C@H](NC(=O)[C@H](Cc1ccccc1)NC(=O)[C@H](CCCNC(=N)N)NC(=O)[C@H](CCC(N)=O)NC(=O)[C@@H](NC(=O)[C@H](C)NC(=O)[C@H](C)NC(=O)C(C)(C)NC(=O)[C@H](CCC(=O)O)NC(=O)[C@H](CCCCNC(=O)COCCOCCNC(=O)COCCOCCNC(=O)CC[C@H](NC(=O)CCCCCCCCCCCCCCCCCCC(=O)O)C(=O)O)NC(=O)[C@H](CC(C)C)NC(=O)[C@H](CCCNC(=N)N)NC(=O)[C@H](CO)NC(=O)[C@@H](NC(=O)[C@H](CC(=O)O)NC(=O)[C@H](CO)NC(=O)[C@@H](NC(=O)[C@H](Cc1ccccc1)NC(=O)[C@@H](NC(=O)CNC(=O)[C@H](CCC(=O)O)NC(=O)C(C)(C)NC(=O)[C@@H](N)Cc1c[nH]cn1)[C@@H](C)O)[C@@H](C)O)C(C)C)[C@@H](C)O)C(=O)N[C@@H](CCC(=O)O)C(=O)N[C@@H](Cc1c[nH]cn1)C(=O)N[C@@H](CC(C)C)C(=O)N[C@H](C(N)=O)C(C)C` [compound 50] (H-H[Aib]EGTFTSDVSRLK([AEEA-AEEA-γGlu-C20 diacid])E[Aib]AATQRFLEHLV-NH2), in data set [1], the Fibril formation is recorded as 12284. In addition, the EC50 on SCTR was 50.1 nM; at GLP1R, 0.0158 nM. Also, the Selectivity at GLP1R is recorded as 3425. Further, the “Turbidity (pH 7)” value in data set [2] turned out to be 0.09.

For `CC(C)C[C@H](NC(=O)[C@H](Cc1ccccc1)NC(=O)[C@H](CCCNC(=N)N)NC(=O)[C@H](CCC(N)=O)NC(=O)[C@H](CCC(=O)O)NC(=O)[C@H](C)NC(=O)[C@H](C)NC(=O)[C@H](CCC(=O)O)NC(=O)[C@H](CCC(=O)O)NC(=O)[C@H](CCCCNC(=O)COCCOCCNC(=O)COCCOCCNC(=O)CC[C@H](NC(=O)CCCCCCCCCCCCCCCCCCC(=O)O)C(=O)O)NC(=O)[C@H](CC(C)C)NC(=O)[C@H](CCC(=O)O)NC(=O)[C@H](CO)NC(=O)[C@@H](NC(=O)[C@H](CC(=O)O)NC(=O)[C@H](CO)NC(=O)[C@@H](NC(=O)[C@H](Cc1ccccc1)NC(=O)[C@@H](NC(=O)CNC(=O)[C@H](CCC(=O)O)NC(=O)C(C)(C)NC(=O)[C@@H](N)Cc1c[nH]cn1)[C@@H](C)O)[C@@H](C)O)C(C)C)C(=O)N[C@@H](CCC(=O)O)C(=O)N[C@@H](Cc1c[nH]cn1)C(=O)N[C@@H](CC(C)C)C(=O)N[C@H](C(N)=O)C(C)C` [compound 51] (H-H[Aib]EGTFTSDVSELK([AEEA-AEEA-γGlu-C20 diacid])EEAAEQRFLEHLV-NH2), in data set [1], the Fibril formation is on record as 8475. Further, the values for the EC50 on SCTR and at GLP1R were 2000 nM and 0.0316 nM, respectively. In addition, at GLP1R, the Selectivity turned out to be 63009. In data set [2], the “Turbidity (pH 7)” value is 0.09.

For `CC(C)C[C@H](NC(=O)[C@H](Cc1ccccc1)NC(=O)[C@H](CCCNC(=N)N)NC(=O)[C@H](CCC(N)=O)NC(=O)[C@H](CO)NC(=O)[C@H](C)NC(=O)[C@H](C)NC(=O)[C@H](Cc1ccccc1)NC(=O)[C@H](CCC(=O)O)NC(=O)[C@H](CCCCNC(=O)COCCOCCNC(=O)COCCOCCNC(=O)CC[C@H](NC(=O)CCCCCCCCCCCCCCCCCCC(=O)O)C(=O)O)NC(=O)[C@H](CC(C)C)NC(=O)[C@H](CCCNC(=N)N)NC(=O)[C@H](CO)NC(=O)[C@@H](NC(=O)[C@H](CC(=O)O)NC(=O)[C@H](CO)NC(=O)[C@@H](NC(=O)[C@H](Cc1ccccc1)NC(=O)[C@@H](NC(=O)CNC(=O)[C@H](CCC(=O)O)NC(=O)C(C)(C)NC(=O)[C@@H](N)Cc1c[nH]cn1)[C@@H](C)O)[C@@H](C)O)C(C)C)C(=O)N[C@@H](CCC(=O)O)C(=O)N[C@@H](Cc1c[nH]cn1)C(=O)N[C@@H](CC(C)C)C(=O)N[C@H](C(N)=O)C(C)C` [compound 52] (H-H[Aib]EGTFTSDVSRLK([AEEA-AEEA-γGlu-C20 diacid])EFAASQRFLEHLV-NH2), the Fibril formation in data set [1] turned out to be 241858. The EC50 on SCTR was 398 nM. Besides, on GLP1R, the Selectivity is recorded as 3341 and the EC50 was 0.126 nM. In addition, the “Turbidity (pH 7)” value in data set [2] is given as 0.08.

As for `CC(C)C[C@H](NC(=O)[C@H](Cc1ccccc1)NC(=O)[C@H](CCCNC(=N)N)NC(=O)[C@H](CCC(N)=O)NC(=O)[C@@H](NC(=O)[C@H](C)NC(=O)[C@H](C)NC(=O)[C@H](CCC(=O)O)NC(=O)[C@H](CCC(=O)O)NC(=O)[C@H](CCCCNC(=O)COCCOCCNC(=O)COCCOCCNC(=O)CC[C@H](NC(=O)CCCCCCCCCCCCCCCCCCC(=O)O)C(=O)O)NC(=O)[C@H](CC(C)C)NC(=O)[C@@H](NC(=O)[C@H](CO)NC(=O)[C@@H](NC(=O)[C@H](CC(=O)O)NC(=O)[C@H](CO)NC(=O)[C@@H](NC(=O)[C@H](Cc1ccccc1)NC(=O)[C@@H](NC(=O)CNC(=O)[C@H](CCC(=O)O)NC(=O)C(C)(C)NC(=O)[C@@H](N)Cc1c[nH]cn1)[C@@H](C)O)[C@@H](C)O)C(C)C)C(C)C)[C@@H](C)O)C(=O)N[C@@H](CCC(=O)O)C(=O)N[C@@H](Cc1c[nH]cn1)C(=O)N[C@@H](CC(C)C)C(=O)N[C@H](C(N)=O)C(C)C` [compound 53] (H-H[Aib]EGTFTSDVSVLK([AEEA-AEEA-γGlu-C20 diacid])EEAATQRFLEHLV-NH2), the Fibril formation in data set [1] came to 5164. For the same compound, on SCTR, the EC50 is 63.1 nM. Further, on GLP1R, the Selectivity is 10988 and the EC50 was 0.00501 nM. The “Turbidity (pH 7)” value in data set [2] was 0.08.

`CC(C)C[C@H](NC(=O)[C@H](Cc1ccccc1)NC(=O)[C@H](CCCNC(=N)N)NC(=O)[C@H](CCC(N)=O)NC(=O)[C@@H](NC(=O)[C@H](C)NC(=O)[C@H](C)NC(=O)[C@@H](NC(=O)[C@H](CCC(=O)O)NC(=O)[C@H](CCCCNC(=O)COCCOCCNC(=O)COCCOCCNC(=O)CC[C@H](NC(=O)CCCCCCCCCCCCCCCCCCC(=O)O)C(=O)O)NC(=O)[C@H](CC(C)C)NC(=O)[C@H](CCC(=O)O)NC(=O)[C@H](CO)NC(=O)[C@@H](NC(=O)[C@H](CC(=O)O)NC(=O)[C@H](CO)NC(=O)[C@@H](NC(=O)[C@H](Cc1ccccc1)NC(=O)[C@@H](NC(=O)CNC(=O)[C@H](CCC(=O)O)NC(=O)C(C)(C)NC(=O)[C@@H](N)Cc1c[nH]cn1)[C@@H](C)O)[C@@H](C)O)C(C)C)[C@@H](C)O)[C@@H](C)O)C(=O)N[C@@H](CCC(=O)O)C(=O)N[C@@H](Cc1c[nH]cn1)C(=O)N[C@@H](CC(C)C)C(=O)N[C@H](C(N)=O)C(C)C` [compound 54] (H-H[Aib]EGTFTSDVSELK([AEEA-AEEA-γGlu-C20 diacid])ETAATQRFLEHLV-NH2) yielded a Fibril formation in data set [1] of 7756. Besides, the EC50 at SCTR is 126 nM. At GLP1R, the Selectivity turned out to be 11020 and the EC50 was 0.0126 nM. Moreover, the “Turbidity (pH 7)” value in data set [2] came out at 0.09.

For the origin of these results see US20260201008A1, “SECRETIN-DERIVED GLP1R SELECTIVE AGONISTS” (GUBRA A/S, priority 2023, published 2026).
